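Step 1: Grow cells in 96-well plates. Step 2: Expose to compound for 48 hours at 5 concentrations. Step 3: Interpolate endpoints linearly; if unreached, use highest concentration. GI50 = concentration required for 50% inhibition of growth. Definition used: TGI = concentration required for complete inhibition of growth.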
Assays:
Assay in all cases: NCI tumour cell line growth inhibition, 48 h
HOP-62 NSCLC = system: HOP-62 NSCLC
SK-MEL-5 melanoma = system: SK-MEL-5 melanoma
HOP-92 NSCLC = system: HOP-92 NSCLC
UO-31 renal = system: UO-31 renal
HCC-2998 colon = system: HCC-2998 colon
A549 NSCLC = system: A549 NSCLC
MOLT-4 leukemia = system: MOLT-4 leukemia
HL-60(TB) leukemia = system: HL-60(TB) leukemia
SN12C renal = system: SN12C renal
CAKI-1 renal = system: CAKI-1 renal
786-0 renal = system: 786-0 renal
HCT-116 colon = system: HCT-116 colon
LOX IMVI melanoma = system: LOX IMVI melanoma
NCI-H226 lung = system: NCI-H226 lung
OVCAR-8 ovarian = system: OVCAR-8 ovarian
MCF7 breast = system: MCF7 breast
MDA-MB-231 breast = system: MDA-MB-231 breast
PC-3 prostate = system: PC-3 prostate
UACC-62 melanoma = system: UACC-62 melanoma
HT29 colon = system: HT29 colon
T-47D breast = system: T-47D breast
NCI-H460 lung = system: NCI-H460 lung
DU-145 prostate = system: DU-145 prostate
NCI/ADR-RES ovarian = system: NCI/ADR-RES ovarian
SR leukemia = system: SR leukemia
HCT-15 colon = system: HCT-15 colon
COLO 205 colon = system: COLO 205 colon
SF-268 CNS = system: SF-268 CNS
ACHN renal = system: ACHN renal
SW-620 colon = system: SW-620 colon
SF-539 CNS = system: SF-539 CNS
OVCAR-3 ovarian = system: OVCAR-3 ovarian
SK-MEL-28 melanoma = system: SK-MEL-28 melanoma
SF-295 CNS = system: SF-295 CNS
OVCAR-5 ovarian = system: OVCAR-5 ovarian
M14 melanoma = system: M14 melanoma
NCI-H23 lung = system: NCI-H23 lung
A498 renal = system: A498 renal
EKVX NSCLC = system: EKVX NSCLC
IGROV1 ovarian = system: IGROV1 ovarian
SK-OV-3 ovarian = system: SK-OV-3 ovarian
NCI-H522 lung = system: NCI-H522 lung
SNB-75 CNS = system: SNB-75 CNS
MDA-MB-435 = system: MDA-MB-435
SNB-19 CNS = system: SNB-19 CNS
TK-10 renal = system: TK-10 renal
CCRF-CEM leukemia = system: CCRF-CEM leukemia
HS 578T breast = system: HS 578T breast
UACC-257 melanoma = system: UACC-257 melanoma
K-562 leukemia = system: K-562 leukemia
U251 CNS = system: U251 CNS
KM12 colon = system: KM12 colon
MALME-3M melanoma = system: MALME-3M melanoma
RPMI-8226 leukemia = system: RPMI-8226 leukemia
RXF 393 renal = system: RXF 393 renal

Cc1ccncc1C(N)=O
GI50 (HOP-62 NSCLC): > 100 µM
TGI (HOP-62 NSCLC): > 100 µM
GI50 (SK-MEL-5 melanoma): > 100 µM
TGI (SK-MEL-5 melanoma): > 100 µM
GI50 (HOP-92 NSCLC): > 100 µM
TGI (HOP-92 NSCLC): > 100 µM
GI50 (UO-31 renal): > 100 µM
TGI (UO-31 renal): > 100 µM
GI50 (HCC-2998 colon): > 100 µM
TGI (HCC-2998 colon): > 100 µM
GI50 (A549 NSCLC): > 100 µM
TGI (A549 NSCLC): > 100 µM
GI50 (MOLT-4 leukemia): > 100 µM
TGI (MOLT-4 leukemia): > 100 µM
GI50 (HL-60(TB) leukemia): > 100 µM
TGI (HL-60(TB) leukemia): > 100 µM
GI50 (SN12C renal): > 100 µM
TGI (SN12C renal): > 100 µM
GI50 (CAKI-1 renal): > 100 µM
TGI (CAKI-1 renal): > 100 µM
GI50 (786-0 renal): > 100 µM
TGI (786-0 renal): > 100 µM
GI50 (HCT-116 colon): > 100 µM
TGI (HCT-116 colon): > 100 µM
GI50 (LOX IMVI melanoma): > 100 µM
TGI (LOX IMVI melanoma): > 100 µM
GI50 (NCI-H226 lung): > 100 µM
TGI (NCI-H226 lung): > 100 µM
GI50 (OVCAR-8 ovarian): > 100 µM
TGI (OVCAR-8 ovarian): > 100 µM
GI50 (MCF7 breast): > 100 µM
TGI (MCF7 breast): > 100 µM
GI50 (MDA-MB-231 breast): > 100 µM
TGI (MDA-MB-231 breast): > 100 µM
GI50 (PC-3 prostate): > 100 µM
TGI (PC-3 prostate): > 100 µM
GI50 (UACC-62 melanoma): > 100 µM
TGI (UACC-62 melanoma): > 100 µM
GI50 (HT29 colon): > 100 µM
TGI (HT29 colon): > 100 µM
GI50 (T-47D breast): > 100 µM
TGI (T-47D breast): > 100 µM
GI50 (NCI-H460 lung): > 100 µM
TGI (NCI-H460 lung): > 100 µM
GI50 (DU-145 prostate): > 100 µM
TGI (DU-145 prostate): > 100 µM
GI50 (NCI/ADR-RES ovarian): > 100 µM
TGI (NCI/ADR-RES ovarian): > 100 µM
GI50 (SR leukemia): > 100 µM
TGI (SR leukemia): > 100 µM
GI50 (HCT-15 colon): > 100 µM
TGI (HCT-15 colon): > 100 µM
GI50 (COLO 205 colon): > 100 µM
TGI (COLO 205 colon): > 100 µM
GI50 (SF-268 CNS): > 100 µM
TGI (SF-268 CNS): > 100 µM
GI50 (ACHN renal): > 100 µM
TGI (ACHN renal): > 100 µM
GI50 (SW-620 colon): > 100 µM
TGI (SW-620 colon): > 100 µM
GI50 (SF-539 CNS): > 100 µM
TGI (SF-539 CNS): > 100 µM
GI50 (OVCAR-3 ovarian): > 100 µM
TGI (OVCAR-3 ovarian): > 100 µM
GI50 (SK-MEL-28 melanoma): > 100 µM
TGI (SK-MEL-28 melanoma): > 100 µM
GI50 (SF-295 CNS): > 100 µM
TGI (SF-295 CNS): > 100 µM
GI50 (OVCAR-5 ovarian): > 100 µM
TGI (OVCAR-5 ovarian): > 100 µM
GI50 (M14 melanoma): > 100 µM
TGI (M14 melanoma): > 100 µM
GI50 (NCI-H23 lung): > 100 µM
TGI (NCI-H23 lung): > 100 µM
GI50 (A498 renal): > 100 µM
TGI (A498 renal): > 100 µM
GI50 (EKVX NSCLC): > 100 µM
TGI (EKVX NSCLC): > 100 µM
GI50 (IGROV1 ovarian): > 100 µM
TGI (IGROV1 ovarian): > 100 µM
GI50 (SK-OV-3 ovarian): > 100 µM
TGI (SK-OV-3 ovarian): > 100 µM
GI50 (NCI-H522 lung): > 100 µM
TGI (NCI-H522 lung): > 100 µM
GI50 (SNB-75 CNS): > 100 µM
TGI (SNB-75 CNS): > 100 µM
GI50 (MDA-MB-435): > 100 µM
TGI (MDA-MB-435): > 100 µM
GI50 (SNB-19 CNS): > 100 µM
TGI (SNB-19 CNS): > 100 µM
GI50 (TK-10 renal): > 100 µM
TGI (TK-10 renal): > 100 µM
GI50 (CCRF-CEM leukemia): > 100 µM
TGI (CCRF-CEM leukemia): > 100 µM
GI50 (HS 578T breast): > 100 µM
TGI (HS 578T breast): > 100 µM
GI50 (UACC-257 melanoma): > 100 µM
TGI (UACC-257 melanoma): > 100 µM
GI50 (K-562 leukemia): > 100 µM
TGI (K-562 leukemia): > 100 µM
GI50 (U251 CNS): > 100 µM
TGI (U251 CNS): > 100 µM
GI50 (KM12 colon): > 100 µM
TGI (KM12 colon): > 100 µM
GI50 (MALME-3M melanoma): > 100 µM
TGI (MALME-3M melanoma): > 100 µM
GI50 (RPMI-8226 leukemia): > 100 µM
TGI (RPMI-8226 leukemia): > 100 µM
GI50 (RXF 393 renal): > 100 µM
TGI (RXF 393 renal): > 100 µM

From PubChem BioAssay (NCI)
